Data published in patent US8623844B2, “Fosaprepitant dimeglumine intermediate, neutral fosaprepitant, and amorphous fosaprepitant dimeglumine and processes for their preparations” (priority 2008, dated 2014).

What was measured:
[1] = cited from earlier work
[2] = Stability studies of amorphous form, series of XRPD spectra (FIG. 7); assay type: physicochemical; settings: about 2° C. to about 8° C., relative humidity less than about 60%, about 7 days to about 2 months
Method: The diffractogram was obtained using a Powder X-ray Diffractometer (Philips X'Pert Pro, PANalytical®) with a Cu radiation of λ=1.540598Å. The measurements were carried out from 2 degrees to 50 degrees with times per step of 50 seconds.
The stability data, shown as series of XRPD scans, are substantially in accordance with FIG. 7.

Structure (SMILES)	degradation on storage ([1]; normal ambient temperatures, stored at −20° C. to avoid degradation, J. Med. Chem. 2000, 43, 1234-1241)	stability of amorphous form on exposure ([1]; normal room temperature, as well as about 2° C.-8° C., transforms into crystalline form)	stability of amorphous polymorphic form (XRPD) [2]
CNC[C@H](O)[C@@H](O)[C@H](O)[C@H](O)CO.CNC[C@H](O)[C@@H](O)[C@H](O)[C@H](O)CO.C[C@@H](O[C@H]1OCCN(Cc2nn(P(=O)(O)O)c(=O)[nH]2)[C@H]1c1ccc(F)cc1)c1cc(C(F)(F)F)cc(C(F)(F)F)c1	degrades at normal ambient temperatures	loses its stability	–
CNC[C@H](O)[C@@H](O)[C@H](O)[C@H](O)CO.CNC[C@H](O)[C@@H](O)[C@H](O)[C@H](O)CO.C[C@@H](O[C@H]1OCCN(Cc2nc(=O)n(P(=O)(O)O)[nH]2)[C@H]1c1ccc(F)cc1)c1cc(C(F)(F)F)cc(C(F)(F)F)c1 [amorphous fosaprepitant dimeglumine, 1-deoxy-1-(methylamino)-D-glucitol[3-[[(2R,3S)-2-[(1R)-1-[3,5-bis(trifluoromethyl)phenyl]-ethoxy]-3-(4-fluorophenyl)-4-morpholinyl]methyl]-2,5-dihydro-5-oxo-1H-1,2,4-triazol-1-yl]phosphonate (2:1) (salt)]	–	–	substantially stable
